According to patent US20200038355A1, “ANTIOXIDANTS FOR USE IN OPHTHALMIC SURGERY” (Case Western Reserve University, priority 2017, published 2020):
Entries after “also recorded” stand apart in the source; their conditions may differ.

Tests used:
[1] = system: HLE-B3 cells; assay: EMT marker / Wnt-β-catenin immunoblot in human lens epithelial cell line HLE-B3; type: cell-based; settings: for αSMA production after BSO stimulation: HLE-B3 cells co-treated with 10 mM NAC or 0.5 mM GSH-EE and 500 μM BSO, 24 hr; for TGFβ2-mediated αSMA production: HLE-B3 cells, 10 mM NAC or 0.5 mM GSH-EE co-incubated with 1 ng/ml TGFβ2, 24 hr; for BSO-increased Ser9 phosphorylation of GSK-3β / BSO-increased β-catenin expression: cells co-treated with 0.5 mM GSH-EE or 10 mM NAC, BSO 24 hr
Description: Cell Culture—Human lens epithelial cells (HLE-B3) were grown in DMEM medium with 10% fetal bovine serum (FBS), 2 mM glutamine and 50 unit/ml penicillin streptomycin (ThermoFisher, Waltham, Mass.) at 37° C. in a humidified 5% CO2 incubator. For primary porcine lens epithelial cell culture, pig eyes were collected at a local slaughterhouse within two hours of postmortem time, placed on ice and transported to the lab (about 1 hr) for immediate processing. First, the isolated lens was incubated with 2 ml of 0.25% trypsin at 37° C. for 2 min to remove any attached non-lens cells. Then, after a brief rinse with HBSS, the lens capsule was isolated and rinsed three times with HBSS before incubation with 2 ml of 0.5% trypsin for 5 min. 5 ml of complete DMEM medium was added and tissue was disrupted by pipetting up and down 10-15 times with a pipette fitted with a 1000 μl tip. The tissue homogenate was then passed through a 100 μm cell strainer. The cells were collected by low speed centrifugation at 150×g and placed in a 35 mm laminin-coated tissue culture dish with DMEM medium supplied with 10% FBS, 2 mM glutamine and 50 unit/ml penicillin streptomycin (ThernoFisher). The cells were cultured at 37° C. in a humidified incubator with 5% CO2.
(§1) Cells were placed 24 hr before the treatment and fresh medium was replaced immediately before the treatment. The indicated concentrations of BSO, DMF, NAC, GSH-EE or TGFβ2 were added to fresh medium and incubated at various time intervals as indicated. After treatment time, the cells were harvested after three washes with ice-cold PBS and subjected to immunoblot or other assays as described below. For whole lens culture, the serum-free medium with or without BSO, NAC, GSH-EE or TGFβ2 was incubated immediately after isolation for 48 hr and the whole lens or lens capsule was collected for further analysis. For lens explant culture, 48 hr after explant culture, various stimulates were used in fresh serum-free medium for an additional 48 hr, and the explant was fixed with 10% formaldehyde for 10 min before immunofluorescence stain, as described below.
The cells, whole lens, lens capsule, and lens fibers were collected and lysed in lysis buffer containing 20 mM Tris pH 7.5, 1 mM EDTA, 1 mM EGTA, 150 mM NaCl, 1% Triton X-100, 2.5 mM sodium pyrophosphate, 1 mM bα-Glycerolphosphate, 1 mM Na3VO4, 1 mg/ml Leupeptin, 1 mM PMSF on ice for 10 min. The protein concentration from the supernatant was determined by protein BCA assay (ThermoFisher). The protein extract was further processed for immunoblot analysis and probed for αSMA, collagen I, vimentin, phosphorylated Smad2, phosphorylated Smad3, phosphorylated GSK-3β and (β-catenin. All data were normalized to the level of GAPDH.

[2] = system: lens explant; assay: Mouse lens explant culture (ex vivo PCO mimetic model), αSMA immunofluorescence; type: cell-based; settings: 10 mM NAC or 0.5 mM GSH-EE co-incubated with 1 ng/ml TGFβ2, 48 hr
Description: The isolated intact lens was rinsed three times with HBSS and then cultured in 12-well-plates with serum-free Medium 199 (ThermoFisher) with 50 unit/ml penicillin streptomycin at 37° C. in 5% CO2 incubator, as described above. The lens explant was cultured following the same procedure as described by a previous report. Tamiya et al., Exp Eye Res 71, 591-597 (2000). In brief, the mouse lens was placed in an anterior-toposterior orientation with the anterior attached to the culture dish. The lens posterior capsule was torn/cut by the tip of extra-fine forceps and then peeled towards anterior capsule and pinned on the plastic culture dish. The lens fiber mass was removed thereafter. The explant was cultured in serum-free MEM medium supplied with 50 unit/ml penicillin streptomycin at 37° C. in 5% CO2 incubator as described above. Only healthy growing explants were used for the described study and any unhealthy looking explants, such as folded explants or those with cell detachment, were discarded.
as §1, with “For lens explant culture, 48 hr after explant culture, various stimulates were used in fresh serum-free medium for an additional 48 hr, and the explant was fixed with 10% formaldehyde for 10 min before immunofluorescence stain, as described below.” left out
Confocal microscope—All confocal images were collected by a Leica SP8 gSTED confocal microscope equipped with two 3 Hyd SP GaAsP detectors and the AOBS system lasers include a 405 nm, Argon (458, 476, 488, 496, 514 nm), a tunable white light (470 to 670 nm), and a 592 nm STED depletion laser. For proper comparison, each channel of fluorescence was adjusted to the highest sensitivity/intensity but without over saturation from samples with the strongest signal. […]

| SMILES | αSMA production after BSO stimulation [1] | TGFβ2-mediated αSMA production [1] | BSO-increased Ser9 phosphorylation of GSK-3β [1] | BSO-increased β-catenin expression [1] | TGFβ2-induced αSMA elevation in lens explant [2] | inhibitory effect on EMT process compared with GSH-EE ([1]; cell culture) |
| --- | --- | --- | --- | --- | --- | --- |
| CCOC(=O)CNC(=O)[C@H](CS)NC(=O)CC[C@H](N)C(=O)O [GSH-EE, glutathione ethyl ester] | alleviated; also recorded: partially, but significantly, block | alleviated; also recorded: significantly alleviate | alleviated | attenuate; also recorded: alleviated | partially, but significantly, attenuated |  |
| CC(=O)N[C@@H](CS)C(=O)O [NAC, N-acetyl cysteine] | alleviated; also recorded: completely abolish | alleviated; also recorded: completely block | attenuate; also recorded: alleviated; also recorded: completely abolished | alleviated | attenuated; also recorded: completely alleviated | much higher inhibitory effect than GSH-EE |
